From BigSolDB 2.1

CN(C/C=C/C#CC(C)(C)C)Cc1cccc2ccccc12.Cl
solubility (mole fraction)
Settings	283.15 K	288.15 K	293.15 K	298.15 K	303.15 K	308.15 K	313.15 K	318.15 K	323.15 K
in DMSO	–	–	0.0199	0.0226	0.0252	0.0284	0.0319	0.0354	0.0401
in acetonitrile	0.0013	0.00153	0.00179	0.00213	0.00254	0.00304	0.00377	0.00455	0.00532
in cyclohexanol	–	–	–	–	0.0381	0.048	0.0556	0.0654	0.0774
in ethanol	0.0198	0.0222	0.0245	0.0298	0.0342	0.0414	0.0493	0.0572	0.0678
in isobutanol	0.0101	0.0128	0.0159	0.0213	0.0276	0.0354	0.045	0.0559	0.0693
in isooctanol	0.00196	0.00403	0.00498	0.00649	0.00867	0.0109	0.0143	0.0178	0.0221
in isopentanol	0.0073	0.00942	0.0118	0.0149	0.0189	0.0242	0.0298	0.0389	0.0493
in isopropanol	0.0031	0.00391	0.00487	0.00627	0.00831	0.0106	0.0144	0.0183	0.0245
in n-butanol	0.0123	0.0168	0.0217	0.0251	0.0313	0.0377	0.0466	0.0568	0.0685
in n-hexanol	0.00683	0.00916	0.0115	0.0148	0.0185	0.0229	0.0291	0.0373	0.0469
in n-pentanol	0.0158	0.0208	0.0255	0.0304	0.0357	0.0428	0.0511	0.0601	0.0697
in n-propanol	0.0194	0.0214	0.0233	0.027	0.0351	0.0427	0.0519	0.0615	0.0735
in sec-butanol	0.0037	0.0047	0.00608	0.0077	0.00999	0.0133	0.0176	0.0227	0.0288
